Experimental data published in patent US8475800B2, “Phosphorylated derivatives of a U1-70K peptide and their use in the treatment of autoimmune pathologies” (Centre National de la Recherche Scientifique, priority 2001, dated 2013).
Square brackets hold non-standard residues; d marks the D form. Ends that are not written are not given here. pS = N[C@@H](COP(=O)(O)O)C(=O)O

Experiments:
[1] = system: CD4+ T cells of MRL/lpr lupic mice; assay: Recognition by CD4+ T cells of MRL/lpr lupic mice (ex vivo proliferation, IL-2 secretion); assay type: cell-based
Experimental: (§1) FIG. 1: recognition of the 131-151 peptide of the 70K protein by the CD4+ T cells of MRL/lpr (right column) or NZB/W lupic mice (left column); the peptide concentrations are indicated on the x-axis, the proliferation of the CD4+ T cells of MRL/lpr and BW mice, represented on the y-axis of the graphs of the first line, is measured ex vivo in the presence of the various concentrations of 131-151 peptide of the 70K protein; the proliferation is expressed in stimulation indices corresponding to the radioactivity incorporated in the DNA of the cells (in counts per minute) in the presence of peptide on the incorporation of radioactivity in the absence of peptide; the secretion of IL-2, represented on the y-axis of the graphs of the second line, is measured in the supernatants after 24 hrs of culture by a bio-assay; the IL-2 concentration is determined with a standard range of recombinant IL-2 and is expressed in mU/ml.
(§2) FIG. 13: recognition of the P140 peptide by the CD4^+ T lymphocytes (A) of MRL/lpr lupic mice; the graph on the left represents the proliferation of CD4^+ T cells expressed in stimulation indices as defined above in the presence of the 131-151 peptide, of the phosphorylated P137 and P140 peptides and of two scrambled peptides, phosphorylated or not phosphorylated (Sc and ScP); the positivity limit corresponds to 2.0; the graph on the right represents the secretion of IL-2 (mU/ml) in the presence of the 131-151 peptide, the P137 and P140 peptides and the Sc and ScP peptides; and by the antibodies (B) of MRL/lpr lupic mice; the results are expressed in titre of antibodies corresponding to the dilution allowing an O.D. value at 450 nm equal to 0.2 to be obtained in an ELISA test.

HLA-DR4 = assay: Binding to human MHC class II molecule HLA-DR4; conditions: peptide 0.01-100 μM; FIG. 19
Experimental: (§3) FIG. 19: binding of the 131-151 and P140 peptides to the human major histocompatibility complex class II molecules; the results are expressed as a percentage of binding of the peptides to the HLA-DR1, -DR4 and DR11 molecules; the percentage inhibition is calculated as a function of the O.D. values measured in the presence of various concentrations of 131-151 and P140 peptides (0.01-100 μM).

[2] = system: antibodies of MRL/lpr lupic mice; assay: Recognition by antibodies of MRL/lpr lupic mice (ELISA titre); assay type: binding; conditions: compared with the non-phosphorylated parent peptide; FIG. 13
Excerpt: as §2

[3] = system: pre-autoimmune MRL/lpr mice; assay: Administration to pre-autoimmune MRL/lpr mice, monitoring of disease development; assay type: in vivo
Experimental: The two peptides (phosphorylated in position 140 and non-phosphorylated) were used for a study of restoration of self-tolerance. These two peptides were injected by intravenous and intra-nasal route into preautoimmune mice, and the development of the disease in these mice was monitored.

HLA-DR11 = assay: Binding to human MHC class II molecule HLA-DR11; conditions: peptide 0.01-100 μM; FIG. 19
Experimental: as §3

HLA-DR1 = assay: Binding to human MHC class II molecule HLA-DR1; conditions: peptide 0.01-100 μM; FIG. 19
Experimental: as §3

[4] = system: major histocompatibility complex class II molecules (I-E^k, I-A^k, I-E^d, I-A^d); assay: Binding to murine MHC class II molecules (transfected fibroblasts, T hybridoma IL-2 competition); assay type: cell-based; conditions: murine (and human, as worded in b8); FIG. 2
Experimental: FIG. 2: binding of the 131-151 peptide to the molecules of the major histocompatibility complex of class II murines (I-E^k, I-A^k, I-E^d, I-A^d); fibroblasts transfected by the molecules I-E^k, or I-A^k, or I-E^d, or I-A^d are pre-incubated with different concentrations of the 131-151 peptide; after 30 minutes at 37° C., the 12-26CI or 16-33 analogue peptides of the β2-adrenergic receptor, as well as the respective T hybridomas which recognize these peptides in the adapted context (8I for I-E^k, E7E9 for I-A^k, 26.1 for I-E^d, and 26.2 for I-A^d) are added; the supernatants are recovered after 24 hrs of culture and the secretion of IL-2 is evaluated as previously; the results are expressed as a % inhibition representing the ability of the 131-151 peptide to inhibit the binding of the 12-26 CI and 16-33[…]2 analogue peptides to the class II molecules.

[5] = system: CD4+ T cells of NZB/W lupic mice; assay: Recognition by CD4+ T cells of NZB/W lupic mice; assay type: cell-based; conditions: FIG. 1
Experimental: as §1

[6] = system: antibodies of MRL/lpr lupic mice; conditions: among 20 overlapping peptides of the 70K protein; cited from earlier work
[7] = intravenous route, pre-autoimmune MRL/lpr mice, FIG. 14
[8] = in vitro, CD4+ T cells purified from the ganglia of MRL/lpr mice

Row | Substance | recognition by the CD4+ T cells of lupic mice ([1]; compared with the non-phosphorylated parent peptide, FIG. 13) | binding to HLA-DR4 (HLA-DR4) | recognition by the antibodies of lupic mice [2] | appearance of glomerulonephritis ([3]; intranasal route, pre-autoimmune MRL/lpr mice, FIG. 14) | appearance of glomerulonephritis [3, 7] | production of antibodies directed against the DNA [3, 7] | survival of animals [3, 7] | binding to HLA-DR11 (HLA-DR11) | binding to HLA-DR1 (HLA-DR1) | proliferation of CD4+ T cells [1, 8] | secretion of IL-2 by CD4+ T cells [1, 8] | proteinuria ([3]; group injected with the peptide, versus saline control) | effect of administration on anti-DNA antibodies, glomerulonephritis and survival ([3]; pre-autoimmune mice, listed as parent peptide) | mice survived ([3]; to 35 weeks, p=0.2 compared to the control mice) [%] | binding to major histocompatibility complex class II molecules [4] | epitope of the 70K protein in the NZB/W mouse [5] | recognition by the antibodies of MRL/lpr lupic mice [6]
1 | P140: sequence SEQ ID NO: 1 (RIHMVYSKRSGKPRGYAFIEY) in which the serine in position 10 is phosphorylated (RIHMVYSKR[pS]GKPRGYAFIEY; listed as Homo sapiens) | to the same extent as or even to a greater extent than the non-phosphorylated peptide | capable of binding | to the same extent as or even to a greater extent than the non-phosphorylated peptide | not by intranasal route | delays the appearance of glomerulonephritis | reduces the production of large numbers of antibodies directed against the DNA | prolongs the survival of animals | capable of binding | capable of binding |  |  |  |  |  |  |  | 
2 | RIHMVYSKRSGKPRGYAFIEY (listed as Homo sapiens) [131-151] |  | capable of binding |  |  |  |  |  | capable of binding | capable of binding | capable of stimulating | capable of stimulating | hardly reduced | does not on the other hand induce any statistically significant effect | 25 | capable of binding | major epitope | recognized very early
